Source: patent US8563717B2, “Adenine derivatives” (GlaxoSmithKline LLC, priority 2008, dated 2013)
Structures can show the parent of a compound that is named as a salt.

System: Interferon-α
Assay: Induction of Interferon-α using cryopreserved human PBMCs
Format: cell-based
Conditions: PBMC, 24 h incubation, normalised to 1 uM resiquimod, read-out: mean pEC50 for induction of IFN-α (converted)
Method: Assay for the Induction of Interferon-α Using Cryopreserved Human Peripheral Blood Mononuclear Cells (PBMCs)
Compounds were dissolved in DMSO. Serial 2-fold dilutions with DMSO were prepared and 0.25 μl dispensed into 384-well clear Greiner polypropylene plates.
Blood samples of up to 200 ml were obtained from healthy human donors. Whole blood in 25 ml volumes was overlaid onto 15 ml Ficoll gradients in Leucosep tubes, and centrifuged at 1000 g for 20 min. Cells in the band at the plasma/histopaque interface were carefully removed and washed twice with PBS (centrifuged at 400 g for 5 min to harvest). The final pellet was resuspended in freezing medium (90% Heat-inactivated serum, 10% DMSO) to a cell concentration of 4×10^7 cells/ml. The resuspended cells were then cryopreserved (frozen) using a rate controlled freezer, and stored at −140° C. for up to 4 months.
Immediately prior to assay, vials of cryopreserved (frozen) PBMCs were thawed rapidly in a water bath at 37° C. A 1:10 dilution of the cells in trypan blue was prepared and counted. The PBMCs were then diluted in growth media [RPMI 1640 containing 10% fetal calf serum (invitrogen), Penicillin+[…] (Gibco cat. #25030-024, 1:50), L-Glutamine 2 mM, and 1000 units/ml recombinant human IFN-gamma (Preprotech catalogue #300-02)] to a density of 1×10^6 cells/ml, and 50 ul/well dispensed to 384-well clear Greiner polypropylene plates containing 0.25 μl DMSO or test compound in 0.25 μl DMSO. […] Plates were incubated for 24 h at 37° C. in 5% CO2.
A multi-isoform immunoassay was used to quantify IFN-α in PBMC supernatants. Rabbit polyclonal antibody against human IFN-α (catalogue number 31101, Stratech Scientific) was diluted 1:10000 in assay buffer (RPMI 1640 containing 10% fetal calf serum, Invitrogen) and 20 μl was added to each well of an MSD (Meso-Scale Discovery) single small-spot 384-well GAR (goat anti-rabbit antibody coated) plate. The plate was incubated for 1 hour at room temperature with vigorous shaking. Following three washes with PBS, 20 μl of cell supernatant were added to each well of the plate. The plate was then incubated for 1 hour at room temperature with vigorous shaking. A pair of monoclonal antibodies to IFN-α (catalogue numbers 21100 and 21112, Stratech Scientific) were labelled with sulfo-TAG (MSD), diluted 1:1000 in assay buffer and 20 μl added to each well of the plate. The plate was further incubated for 1 hour at room temperature with vigorous shaking. Following three washes with PBS, 30 μl of x2 T buffer (MSD) was added to each well and the plate was read on an MSD Sector 6000 plate reader.
Data were normalised to internal plate controls of 1 uM resiquimod (n=16) and DMSO (n=16). pEC50 values were derived by 4-parameter curve fit with IRLS in ActivityBase, from 11-point, two-fold serial dilution of test compounds.

`CCCCOc1nc(N)c2[nH]c(=O)n(CCC3CCN(C4CCCC4)CC3)c2n1` [Example 86, 6-Amino-2-(butyloxy)-9-[2-(1-cyclopentyl-4-piperidinyl)ethyl]-7,9-dihydro-8H-purin-8-one] was tested, and the EC50 was under 1580 nM.
Compound `CCCCOc1nc(N)c2[nH]c(=O)n(CC3CCCN(CCCC)C3)c2n1` (stereo not drawn) [Example 25, 6-Amino-2-(butyloxy)-9-[(1-butyl-3-piperidinyl)methyl]-7,9-dihydro-8H-purin-8-one] has an EC50 of under 1580 nM.
`CCCCOc1nc(N)c2[nH]c(=O)n(CCC3CCCN(CC4CCCC4)C3)c2n1` (stereo not drawn) [Example 37, 6-Amino-2-(butyloxy)-9-{2-[1-(cyclopentylmethyl)-3-piperidinyl]ethyl}-7,9-dihydro-8H-purin-8-one] showed an EC50 of under 1580 nM.
With `CCCCOc1nc(N)c2[nH]c(=O)n(CCCCCC3CCN(CCC)CC3)c2n1` [Example 124, 6-Amino-2-(butyloxy)-9-[5-(1-propyl-4-piperidinyl)pentyl]-7,9-dihydro-8H-purin-8-one] the EC50 was under 1580 nM.
In the case of `CCCCOc1nc(N)c2[nH]c(=O)n(CC3CCN(C(C)C)CC3)c2n1` [Example 71, 6-Amino-2-(butyloxy)-9-{[1-(1-methylethyl)-4-piperidinyl]methyl}-7,9-dihydro-8H-purin-8-one], the EC50 is reported as under 1580 nM.
For `CCC[C@H](C)Oc1nc(N)c2[nH]c(=O)n(CCCC3CCN(CC)CC3)c2n1` [Example 105, 6-Amino-9-[3-(1-ethyl-4-piperidinyl)propyl]-2-{[(1S)-1-methylbutyl]oxy}-7,9-dihydro-8H-purin-8-one], the EC50 was under 1580 nM.
For `CCCCOc1nc(N)c2[nH]c(=O)n(CCCC3CCCCN3CCC3CCCCC3)c2n1` (stereo not drawn) [Example 22, 6-Amino-2-(butyloxy)-9-{3-[1-(2-cyclohexylethyl)-2-piperidinyl]propyl}-7,9-dihydro-8H-purin-8-one], the EC50 was under 1580 nM.
With `CCCCOc1nc(N)c2[nH]c(=O)n(CCCCC3CCN(CCCC)CC3)c2n1` [Example 110, 6-Amino-2-(butyloxy)-9-[4-(1-butyl-4-piperidinyl)butyl]-7,9-dihydro-8H-purin-8-one] the EC50 was under 1580 nM.
`CCCCOc1nc(N)c2[nH]c(=O)n(CCCCCC3CCN(CC(C)C)CC3)c2n1` [Example 127, 6-Amino-2-(butyloxy)-9-{5-[1-(2-methylpropyl)-4-piperidinyl]pentyl}-7,9-dihydro-8H-purin-8-one hydrochloride] showed an EC50 of under 1580 nM.
With `CCCCOc1nc(N)c2[nH]c(=O)n(CCCCC3CCCN(CC(C)C)C3)c2n1` (stereo not drawn) [Example 60, 6-Amino-2-(butyloxy)-9-{4-[1-(2-methylpropyl)-3-piperidinyl]butyl}-7,9-dihydro-8H-purin-8-one hydrochloride] the EC50 was under 1580 nM.
Work on `CCCCOc1nc(N)c2[nH]c(=O)n(CCC3CCN(CCC4CCCCC4)CC3)c2n1` [Example 89, 6-Amino-2-(butyloxy)-9-{2-[1-(2-cyclohexylethyl)-4-piperidinyl]ethyl}-7,9-dihydro-8H-purin-8-one] yielded an EC50 of under 1580 nM.
Compound `CCCCOc1nc(N)c2[nH]c(=O)n(CC3CCCNC3)c2n1` (stereo not drawn) [Example 4, hydrochloride] has an EC50 of under 1580 nM.
In the case of `CCCCOc1nc(N)c2[nH]c(=O)n(CCCC3CCCCN3CC)c2n1` (stereo not drawn) [Example 14, 6-Amino-2-(butyloxy)-9-[3-(1-ethyl-2-piperidinyl)propyl]-7,9-dihydro-8H-purin-8-one], the EC50 is reported as under 1580 nM.
With `CCCCOc1nc(N)c2[nH]c(=O)n(CCCC3CCCCN3)c2n1` (stereo not drawn) [Example 13, 6-Amino-2-(butyloxy)-9-[3-(2-piperidinyl)propyl]-7,9-dihydro-8H-purin-8-one] the EC50 was under 1580 nM.
`CCCCOc1nc(N)c2[nH]c(=O)n(CCCCCCC3CCNCC3)c2n1` [Example 132, 6-Amino-2-(butyloxy)-9-[6-(4-piperidinyl)hexyl]-7,9-dihydro-8H-purin-8-one hydrochloride] was tested, and the EC50 was under 1580 nM.
In the case of `CCC[C@H](C)Oc1nc(N)c2[nH]c(=O)n(CC3CCNCC3)c2n1` [Example 77, 6-Amino-2-{[(1S)-1-Methylbutyl]oxy}-9-(4-piperidinylmethyl)-7,9-dihydro-8H-purin-8-one], the EC50 is reported as under 1580 nM.
In the case of `CCCCOc1nc(N)c2[nH]c(=O)n(CC3CCN(CCCC)CC3)c2n1` [Example 72, 6-Amino-2-(butyloxy)-9-[(1-butyl-4-piperidinyl)methyl]-7,9-dihydro-8H-purin-8-one], the EC50 is reported as under 1580 nM.
Work on `CCCCOc1nc(N)c2[nH]c(=O)n(CC3CCCN(C4CCCC4)C3)c2n1` (stereo not drawn) [Example 28, 6-Amino-2-(butyloxy)-9-[(1-cyclopentyl-3-piperidinyl)methyl]-7,9-dihydro-8H-purin-8-one hydrochloride] yielded an EC50 of under 1580 nM.
`CCCCOc1nc(N)c2[nH]c(=O)n(CCCCCCC3CCN(C(C)C)CC3)c2n1` [Example 134, 6-Amino-2-(butyloxy)-9-{6-[1-(1-methylethyl)-4-piperidinyl]hexyl}-7,9-dihydro-8H-purin-8-one] was tested, and the EC50 was under 1580 nM.
For `CCCCOc1nc(N)c2[nH]c(=O)n(CCC3CCN(CCC)CC3)c2n1` [Example 80, 6-Amino-2-(butyloxy)-9-[2-(1-propyl-4-piperidinyl)ethyl]-7,9-dihydro-8H-purin-8-one], the EC50 was under 1580 nM.
Work on `CCCCOc1nc(N)c2[nH]c(=O)n(CCCCC3CCN(CC4CCCC4)CC3)c2n1` [Example 115, 6-Amino-2-(butyloxy)-9-{4-[1-(cyclopentylmethyl)-4-piperidinyl]butyl}-7,9-dihydro-8H-purin-8-one] yielded an EC50 of under 1580 nM.
For `CCCCOc1nc(N)c2[nH]c(=O)n(CCCCC3CCN(C(CC)CC)CC3)c2n1` [Example 112, 6-Amino-2-(butyloxy)-9-{4-[1-(1-ethylpropyl)-4-piperidinyl]butyl}-7,9-dihydro-8H-purin-8-one], the EC50 was under 1580 nM.
Work on `CCCCOc1nc(N)c2[nH]c(=O)n(CCCCCC3CCN(CCCC)CC3)c2n1` [Example 126, 6-Amino-2-(butyloxy)-9-[5-(1-butyl-4-piperidinyl)pentyl]-7,9-dihydro-8H-purin-8-one] yielded an EC50 of under 1580 nM.
Compound `CCCCOc1nc(N)c2[nH]c(=O)n(CC3CCN(CCC)CC3)c2n1` [Example 70, 6-Amino-2-(butyloxy)-9-[(1-propyl-4-piperidinyl)methyl]-7,9-dihydro-8H-purin-8-one] has an EC50 of under 1580 nM.
`CCCCOc1nc(N)c2[nH]c(=O)n(CCC3CCN(CCC(C)C)CC3)c2n1` [Example 85, 6-Amino-2-(butyloxy)-9-{2-[1-(3-methylbutyl)-4-piperidinyl]ethyl}-7,9-dihydro-8H-purin-8-one] was tested, and the EC50 was under 1580 nM.
Compound `CCCCOc1nc(N)c2[nH]c(=O)n(CCC3CCCN(C(CC)CC)C3)c2n1` (stereo not drawn) [Example 35, 6-Amino-2-(butyloxy)-9-{2-[1-(1-ethylpropyl)-3-piperidinyl]ethyl}-7,9-dihydro-8H-purin-8-one] has an EC50 of under 1580 nM.
With `CCCCOc1nc(N)c2[nH]c(=O)n(CCCCCC3CCN(C(C)C)CC3)c2n1` [Example 125, 6-Amino-2-(butyloxy)-9-{5-[1-(1-methylethyl)-4-piperidinyl]pentyl}-7,9-dihydro-8H-purin-8-one] the EC50 was under 1580 nM.
Work on `CCCCOc1nc(N)c2[nH]c(=O)n(CCC3CCN(CC(C)C)CC3)c2n1` [Example 83, 6-Amino-2-(butyloxy)-9-{2-[1-(2-methylpropyl)-4-piperidinyl]ethyl}-7,9-dihydro-8H-purin-8-one] yielded an EC50 of under 1580 nM.
Work on `CCCCOc1nc(N)c2[nH]c(=O)n(CCCCC3CCCN(CC4CCCC4)C3)c2n1` (stereo not drawn) [Example 63, 6-Amino-2-(butyloxy)-9-{4-[1-(cyclopentylmethyl)-3-piperidinyl]butyl}-7,9-dihydro-8H-burin-8-one hydrochloride] yielded an EC50 of under 1580 nM.
Work on `CCCCOc1nc(N)c2[nH]c(=O)n(CCCC3CCCNC3)c2n1` (stereo not drawn) [Example 43, 6-Amino-2-(butyloxy)-9-[3-(3-piperidinyl)propyl]-7,9-dihydro-8H-purin-8-one] yielded an EC50 of under 1580 nM.
In the case of `CCCCOc1nc(N)c2[nH]c(=O)n(CCCCC3CCN(CCC4CCCCC4)CC3)c2n1` [Example 117, 6-Amino-2-(butyloxy)-9-{4-[1-(2-cyclohexylethyl)-4-piperidinyl]butyl}-7,9-dihydro-8H-purin-8-one], the EC50 is reported as under 1580 nM.
`CCC[C@H](C)Oc1nc(N)c2[nH]c(=O)n(CCCCC3CCNCC3)c2n1` [Example 118, 6-Amino-2-{[(1S)-1-methylbutyl]oxy}-9-[4-(4-piperidinyl)butyl]-7,9-dihydro-8H-purin-8-one] was tested, and the EC50 was under 1580 nM.
Compound `CCCCOc1nc(N)c2[nH]c(=O)n(CCCCC3CCCN(CCCC)C3)c2n1` (stereo not drawn) [Example 59, 6-Amino-2-(butyloxy)-9-[4-(1-butyl-3-piperidinyl)butyl]-7,9-dihydro-8H-purin-8-one] has an EC50 of under 1580 nM.
